Data from patent publication US11986493B2 (University of Pittsburgh—Of the Commonwealth System of …, priority 2013, dated 2024).

Tested on: subjects with pulmonary hypertension (WHO group I PAH, WHO group III PH)
Experiment: Right heart catheterization: right heart/pulmonary artery hemodynamics, thermodilution cardiac output, PVR and SVR after inhaled NO and nebulized nitrite
Assay type: in vivo, human
Procedure: A total of 6 subjects with a confirmed diagnosis of pulmonary hypertension and meeting all inclusion/exclusion criteria were enrolled in the study which entailed a single right heart catheterization. The study population consisted of subjects with WHO group I PAH (n=3) and subjects with WHO group III PH (n=3) which received the dose escalation paradigm:
During the study right heart/pulmonary artery hemodynamics were measured as well as noninvasive systemic blood pressure monitoring and simultaneous RV echocardiography. Subjects were tested for the changes in pulmonary vascular resistance (PVR) measured by right heart catheterization and using thermodilution cardiac output measurement at time zero, at times 15, 30 and 45 minutes after completion of each nebulization dose.
Following right heart catheterization, the patient was stabilized for 20 minutes. Baseline blood collections and hemodynamic measurements were performed, followed by treatment with 40 ppm inhaled NO gas for […] with repeat hemodynamic measurements performed.
After stopping inhaled NO gas, a single dose of sildenafil was given if patients were on background sildenafil therapy at previously prescribed doses. 45-minutes after sildenafil dose baseline hemodynamics were performed.
Subjects were monitored carefully during and after the study treatment.
The study was conducted at the 3rd FL Catheterization Laboratory at Presbyterian Hospital of the University of Pittsburgh Medical Center (UPMC). Baseline vasoreactivity was recorded after Inhaled NO at 40 ppm for […]. […] Subjects were instructed to breathe as calmly, and deeply as possible until no more mist was formed in the nebulizer chamber. Subjects were also instructed to hold their breath for approximately 10 seconds after inhalation to allow the study drug to reach deep into the lungs.

[1] = Patient 4, nitrite 45 mg inhaled, 15 min
[2] = Patient 4, nitrite 45 mg inhaled, 30 min
[3] = Patient 4, nitrite 45 mg inhaled, 45 min
[4] = Patient 4, nitrite 45 mg inhaled, 60 min
[5] = Patient 4, nitrite 90 mg inhaled, 15 min
[6] = Patient 4, nitrite 90 mg inhaled, 30 min
[7] = Patient 4, nitrite 90 mg inhaled, 45 min
[8] = Patient 4, nitrite 90 mg inhaled, 60 min
[9] = Patient 5, nitrite 45 mg inhaled, 15 min
[10] = Patient 5, nitrite 45 mg inhaled, 30 min
[11] = Patient 5, nitrite 45 mg inhaled, 45 min
[12] = Patient 5, nitrite 45 mg inhaled, 60 min

O=NO [nitrite, sodium nitrite]
mPAP (Patient 3, nitrite 90 mg inhaled, 60 min): 37.34 | CI [1]: 3.07 | CO [1]: 5.37 | PAD [1]: 26 | PAS [1]: 69 | PCWP [1]: 7 | PVR [1]: 6.21 | PVR/SVR [1]: 0.36 | RA [1]: 3 | RVD [1]: 3 | RVS [1]: 74 | SVR [1]: 17.01 | TPR [1]: 7.51 | mPAP [1]: 40.34 | CI [2]: 2.69 | CO [2]: 4.7 | PAD [2]: 24 | PAS [2]: 70 | PCWP [2]: 8 | PVR [2]: 6.67 | PVR/SVR [2]: 0.34 | RA [2]: 4 | RVD [2]: 3 | RVS [2]: 67 | SVR [2]: 19.58 | TPR [2]: 8.37 | mPAP [2]: 39.34 | CI [3]: 2.71 | CO [3]: 4.75 | PAD [3]: 23 | PAS [3]: 68 | PCWP [3]: 9 | PVR [3]: 6.11 | PVR/SVR [3]: 0.32 | RA [3]: 2 | RVD [3]: 2 | RVS [3]: 68 | SVR [3]: 18.95 | TPR [3]: 8.00 | mPAP [3]: 38.01 | CI [4]: 3.03 | CO [4]: 5.31 | PAD [4]: 21 | PAS [4]: 69 | PCWP [4]: 8 | PVR [4]: 5.46 | PVR/SVR [4]: 0.33 | RA [4]: 3 | RVD [4]: 2 | RVS [4]: 68 | SVR [4]: 16.57 | TPR [4]: 6.97 | mPAP [4]: 37.01 | CI [5]: 3.08 | CO [5]: 5.39 | PAD [5]: 23 | PAS [5]: 71 | PCWP [5]: 8 | PVR [5]: 5.75 | PVR/SVR [5]: 0.39 | RA [5]: 3 | RVD [5]: 3 | RVS [5]: 62 | SVR [5]: 14.78 | TPR [5]: 7.24 | mPAP [5]: 39.01 | CI [6]: 3.03 | CO [6]: 5.3 | PAD [6]: 22 | PAS [6]: 70 | PCWP [6]: 7 | PVR [6]: 5.85 | PVR/SVR [6]: 0.37 | RA [6]: 4 | RVD [6]: 3 | RVS [6]: 70 | SVR [6]: 15.73 | TPR [6]: 7.17 | mPAP [6]: 38.01 | CI [7]: 3.08 | CO [7]: 5.39 | PAD [7]: 23 | PAS [7]: 69 | PCWP [7]: 7 | PVR [7]: 5.81 | PVR/SVR [7]: 0.39 | RA [7]: 2 | RVD [7]: 2 | RVS [7]: 74 | SVR [7]: 14.91 | TPR [7]: 7.11 | mPAP [7]: 38.34 | CI [8]: 3.03 | CO [8]: 5.3 | PAD [8]: 21 | PAS [8]: 67 | PCWP [8]: 8 | PVR [8]: 5.35 | PVR/SVR [8]: 0.33 | RA [8]: 2 | RVD [8]: 3 | RVS [8]: 70 | SVR [8]: 16.04 | TPR [8]: 6.86 | mPAP [8]: 36.34 | CI [9]: 2.80 | CO [9]: 4.95 | PAD [9]: 16 | PAS [9]: 66 | PCWP [9]: 3 | PVR [9]: 5.99 | PVR/SVR [9]: 0.48 | RA [9]: 1 | RVD [9]: 1 | RVS [9]: 68 | SVR [9]: 12.53 | TPR [9]: 6.60 | mPAP [9]: 32.67 | CI [10]: 2.50 | CO [10]: 4.43 | PAD [10]: 15 | PAS [10]: 66 | PCWP [10]: 3 | PVR [10]: 6.55 | PVR/SVR [10]: 0.44 | RA [10]: 1 | SVR [10]: 14.75 | TPR [10]: 7.22 | mPAP [10]: 32.00 | CI [11]: 2.75 | CO [11]: 4.86 | PA sat [11]: 60 | PAD [11]: 14 | PAS [11]: 67 | PCWP [11]: 4 | PVR [11]: 5.69 | PVR/SVR [11]: 0.42 | RA [11]: 1 | SVR [11]: 13.65 | TPR [11]: 6.52 | mPAP [11]: 31.67 | CI [12]: 2.52 | CO [12]: 4.46 | PAD [12]: 17 | PAS [12]: 74
